Results as given in ChEMBL document CHEMBL1201862, “PubChem BioAssay data set” (2004).
The source made the active and inactive calls.

Assays:
[1] = viability loss in Vero cells – cytotoxicity control for Vif-APOBEC3G degradation inhibitor project, dose response (AID 1117358); type: functional; details: Vero
INS1 = assay: INS-1E survival protection against cytokine death – cell-based, luminescence, retest, dose response (AID 449756); type: functional; details: Rattus norvegicus;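 note: cell death triggered by IL-1 beta plus TNF-alpha plus IFN-gamma mixture; protective hits raise ATP signal compared with cytokine alone wells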
[2] = target: Sphingosine 1-phosphate receptor 2 (Homo sapiens, UniProt O95136); assay: Dose Response Cell Based Assay for Antagonists of the S1P2 Receptor. [Related pubchem assays: 856, 736 ]; type: functional
Sequence of Sphingosine 1-phosphate receptor 2 (O95136 whole entry): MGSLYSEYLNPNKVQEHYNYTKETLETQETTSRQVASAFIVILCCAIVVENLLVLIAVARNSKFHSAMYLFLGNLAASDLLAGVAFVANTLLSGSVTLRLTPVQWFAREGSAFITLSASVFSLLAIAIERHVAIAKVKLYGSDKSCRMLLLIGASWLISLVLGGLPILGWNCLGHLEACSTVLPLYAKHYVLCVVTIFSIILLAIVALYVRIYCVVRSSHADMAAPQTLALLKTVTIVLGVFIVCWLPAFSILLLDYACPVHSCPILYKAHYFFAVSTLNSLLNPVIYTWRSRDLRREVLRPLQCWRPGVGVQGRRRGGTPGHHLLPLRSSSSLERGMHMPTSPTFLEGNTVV

[3] = OVCAR8 cell viability loss – plate reader, dry powder samples, PAX8 project, dose response (AID 743197); type: functional, cell-based; details: OVCAR-8
[4] = general mammalian cell viability loss – activator set, cherry-pick, cytotoxicity control for miR-122 modulator project, dose response (AID 720690); type: functional, cell-based;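 note: HEK293T human cells scored for general mammalian cytotoxicity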
[5] = general mammalian cell viability loss – inhibitor set, cherry-pick, set 2, cytotoxicity control for miR-122 modulator project, dose response (AID 720697); type: functional, cell-based
[6] = lung carcinoma cell viability loss – CellTiter-Glo luminescence, dry powder, set 17, dose response (AID 1117284); type: functional, cell-based; details: A549
[7] = viability loss in A549 lung cells – cell-based, 24 h, CellTiter-Glo luminescence, cherry-picks, cytotoxicity control, dose response (AID 1053115); type: functional; details: A549, 24 h
Paired box protein Pax-8 = Paired box protein Pax-8 (Homo sapiens, UniProt Q06710); assay: PAX8 transcriptional activity inhibition in RMG-I – RMG-I cells, luciferase, cherry-pick, dose response (AID 687027); type: functional, cell-based;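 note: luciferase reporter driven by Pax8 target thyroperoxidase promoter measured by SteadyGlo luminescence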
Sequence of Paired box protein Pax-8 (Q06710 whole entry): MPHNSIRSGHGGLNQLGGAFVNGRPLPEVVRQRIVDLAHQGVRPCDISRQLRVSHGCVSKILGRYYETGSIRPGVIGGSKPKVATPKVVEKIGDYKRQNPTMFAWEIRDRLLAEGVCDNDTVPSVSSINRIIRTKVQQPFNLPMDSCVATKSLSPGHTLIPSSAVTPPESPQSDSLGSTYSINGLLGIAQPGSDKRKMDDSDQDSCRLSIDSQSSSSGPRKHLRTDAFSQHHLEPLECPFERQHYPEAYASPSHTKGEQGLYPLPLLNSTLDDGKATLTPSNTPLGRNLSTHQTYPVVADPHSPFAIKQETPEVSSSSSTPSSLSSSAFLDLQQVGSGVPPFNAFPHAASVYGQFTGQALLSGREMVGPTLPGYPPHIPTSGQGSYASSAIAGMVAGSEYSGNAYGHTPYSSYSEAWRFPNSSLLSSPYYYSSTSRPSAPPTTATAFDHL

[8] = toxicity toward immortalized ovarian surface epithelium – cell-based, plate reader, dry powder samples, cytotoxicity control for PAX8 inhibitor project, dose response (AID 743045); type: functional
[9] = OVCAR-3 cell viability loss – plate reader, dry powder samples, PAX8 inhibitor project, dose response (AID 743044); type: functional, cell-based
[10] = T. cruzi growth inhibition in host cells, dose response, cell-based, plate reader, dry powder, set 2 (AID 652275); type: functional
[11] = anti-trypanosomal activity in BESM host cells – imaging, CA-I/72 strain, bovine embryo skeletal muscle, dry powder, dose response (AID 651885); type: functional, cell-based
[12] = Trypanosoma cruzi replication inhibitors in host cells – cell-based, plate reader, dry powder samples, dose response (AID 651845); type: functional
[13] = growth inhibition of yeast DHODH-expressing 3D7 parasites – SYBR Green, dry powder samples, dose response (AID 1159570); type: functional, cell-based;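 note: parasite growth measured after 72 hours of compound exposure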
[14] = P. falciparum Dd2 growth inhibitors, dose response, SYBR Green, cherry-picked samples (AID 1159567); type: functional, cell-based
[15] = Dd2 malaria parasite growth inhibition potency – SYBR Green, dry powder samples, dose response (AID 1159566); type: functional, cell-based;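 note: potency for growth inhibition with lower SYBR green DNA signal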
[16] = Dd2 parasite growth inhibition in erythrocytes – SYBR Green, dry powder samples, set 9, dose response (AID 1159568); type: functional, cell-based
[17] = Plasmodium falciparum Dd2 Sybr green parasite growth Measured in Cell-Based and Microorganism Combination System Using Plate Reader - 2153-01_Inhibitor_Dose_DryPowder_Activity_Set3.; type: functional
[18] = growth inhibition of PfATP4-mutant resistant parasites – NITD609-resistant line, SYBR Green, dry powder, dose response (AID 1159571); type: functional, cell-based;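 note: parasites synchronized at ring stage by sorbitol before testing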
[19] = SNU-C1 cell viability reduction, dose response, CellTiter-Glo luminescence (AID 1117323); type: functional, cell-based
[20] = Reduced DLD-1 viability, concentration-response, CellTiter-Glo luminescence (AID 1117352); type: functional
[21] = CellTiter-Glo luminescence survival assay, SW480 colon tumor line, concentration-response curve, half-maximal inhibitory concentration (AID 1117338); type: functional
[22] = cytotoxicity toward HT-29 cells – cell-based, CellTiter-Glo luminescence, IC50, dose response (AID 1117330); type: functional
[23] = glucagon-like peptide-1 release potency in STC-1, concentration-response, half-maximal inhibitory concentration in the STC-1 line (AID 1117345); type: functional, cell-based
[24] = Potency on glucagon-like peptide 1 release, dose-response in NCI-H716 cell line, half maximal inhibitory concentration (AID 1117344); type: functional, cell-based
[25] = RKO cell viability reduction, dose response, CellTiter-Glo luminescence (AID 1117322); type: functional
[26] = cytotoxicity toward HCT116 cells – cell-based, CellTiter-Glo luminescence, IC50, dose response (AID 1117332); type: functional; details: HCT-116
[27] = cytotoxicity toward Colo320 cells – cell-based, CellTiter-Glo luminescence, IC50, dose response (AID 1117334); type: functional; details: COLO 320
[28] = HCT116 cell viability decrease, GSK3B pretreatment – CellTiter-Glo, IC50, dose response (AID 1117339); type: functional; details: HCT-116
[29] = target: RNA-editing ligase 1, mitochondrial (Trypanosoma brucei brucei, UniProt P86926); assay: inhibition of trypanosome RNA editing ligase – biochemical, fluorescence, Trypanosoma brucei, dose response (AID 1117295); type: functional
Sequence of RNA-editing ligase 1, mitochondrial (P86926 whole entry): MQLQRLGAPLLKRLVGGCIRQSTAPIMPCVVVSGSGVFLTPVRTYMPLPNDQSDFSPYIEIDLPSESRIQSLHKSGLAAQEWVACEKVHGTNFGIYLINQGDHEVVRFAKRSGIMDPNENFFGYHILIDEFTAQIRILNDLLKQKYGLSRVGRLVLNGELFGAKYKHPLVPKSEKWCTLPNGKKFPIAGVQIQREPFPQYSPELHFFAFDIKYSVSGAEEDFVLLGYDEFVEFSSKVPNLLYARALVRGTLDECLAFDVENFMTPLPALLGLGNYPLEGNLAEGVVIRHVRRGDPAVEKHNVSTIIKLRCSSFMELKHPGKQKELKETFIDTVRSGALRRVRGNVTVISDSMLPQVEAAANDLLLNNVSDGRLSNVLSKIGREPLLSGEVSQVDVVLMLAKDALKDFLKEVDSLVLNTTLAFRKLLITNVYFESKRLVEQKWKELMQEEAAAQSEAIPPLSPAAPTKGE

[30] = target: T1, DNA repair protein RAD52 homolog (Homo sapiens, UniProt P43351); type: functional, biochemical
T1 sequence (P43351 whole entry): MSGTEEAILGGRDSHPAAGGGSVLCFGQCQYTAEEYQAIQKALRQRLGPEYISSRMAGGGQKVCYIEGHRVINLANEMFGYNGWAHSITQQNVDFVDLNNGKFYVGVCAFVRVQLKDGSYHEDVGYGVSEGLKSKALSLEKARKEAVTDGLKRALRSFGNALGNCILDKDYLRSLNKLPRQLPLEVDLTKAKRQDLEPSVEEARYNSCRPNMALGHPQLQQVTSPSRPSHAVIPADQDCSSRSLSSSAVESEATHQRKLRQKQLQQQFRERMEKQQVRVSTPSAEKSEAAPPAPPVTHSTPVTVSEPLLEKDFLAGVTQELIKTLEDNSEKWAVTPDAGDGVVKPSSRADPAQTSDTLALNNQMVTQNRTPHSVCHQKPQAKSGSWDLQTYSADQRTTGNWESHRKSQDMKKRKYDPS

[31] = viability loss in THP-1 monocytes – THP-1 cells, cytotoxicity control for Vif-APOBEC3G degradation inhibitor project, dose response (AID 1117359); type: functional; details: THP-1

For O=C(CSc1nc2cc(Cl)ccc2s1)N1CCN(C(=O)c2ccco2)CC1, the CC50 [1] was > 40 µM (active).
For Cc1ccc(-c2nn(-c3ccccc3)cc2/C=N/NC(=O)c2ccc(Br)o2)cc1, the AC50 (INS1) was 0.716 µM (active) and the IC50 [2] was 3.36 µM (active).
With C[C@H](O)C#Cc1ccc2c(c1)O[C@@H](CN(C)Cc1ccc(-c3ccccc3)cc1)[C@H](C)CN([C@H](C)CO)S2(=O)=O the AC50 [3] was 44.2 µM (active), the AC50 [4] was 9.51 µM (active) and the AC50 [5] was 8.52 µM (active). The AC50 [6] was 26.4 µM (active), the AC50 [7] was 50.8 µM (active) and the AC50 (Paired box protein Pax-8) was 5.27 µM (active). The AC50 [8] was 34.8 µM (active) and the AC50 [9] was 46.9 µM (active).
With CC(C)N1C[C@H](C)[C@@H](CN(C)Cc2ccc(Oc3ccccc3)cc2)Oc2c(NC(=O)c3ccccc3)cccc2C1=O the AC50 [10] was 0.506 µM (active), the IC50 [11] was > 20 µM (inactive) and the AC50 [12] was 0.506 µM (active).
In the case of CO[C@@H]1CN(C)C(=O)c2ccc(NC(=O)c3ccc4c(c3)OCO4)cc2OC[C@@H](C)N(Cc2ccc3c(c2)OCO3)C[C@H]1C, the AC50 [13] is reported as 4.99 µM (active), the AC50 [14] is reported as 1.11 µM (active) and the AC50 [15] is reported as 0.279 µM (active). The AC50 [16] was 1.73 µM (active), the AC50 [17] was 1.92 µM (active) and the AC50 [18] was 1.17 µM (active).
For Clc1ccc(C(Cn2ccnc2)OCc2c(Cl)cccc2Cl)c(Cl)c1 (stereo not drawn) [ISOCONAZOLE], the IC50 [19] was 0.886 µM (active), the IC50 [20] was 2.36 µM (active) and the IC50 [21] was 2.6 µM (active). The IC50 [22] was 5 µM (inactive), the IC50 [23] was > 40 µM (inactive) and the IC50 [24] was > 40 µM (inactive). The IC50 [25] was 4.01 µM (active), the IC50 [26] was 1.59 µM (active) and the IC50 [27] was 1.82 µM (active). The IC50 [28] was 1.4 µM (active).
In the case of COc1ccccc1N(Cc1ccccc1)S(=O)(=O)c1cccc(C(=O)NC2CC(C)(C)NC(C)(C)C2)c1, the IC50 [29] is reported as > 96.6 µM (inactive) and the AC50 [30] is reported as 13.4 µM (active).
In the case of Cc1cc(N(CCCl)CCCl)ccc1C=NNC(=O)c1cccnc1, the CC50 [31] is reported as 20 µM (active).
